Data set [1] has as its system TNF-α. The data set can be described thus: Inflammatory factor experiment B: TNF-α in knee synovial tissue (ELISA). As to conditions: for inhibition in vivo at 0.6 mg/kg: Rattus norvegicus, po, 48 h, read-out: TNF-α percentage decrease %. It is filed as in vivo, SD rats. In general terms: An ELISA detects its analyte on a solid surface through an enzyme-linked reagent.

In data set [2] the test system is IL-1β. Put plainly: Inflammatory factor experiment B: IL-1β in knee synovial tissue (ELISA). It is filed as in vivo, SD rats. As to conditions: for inhibition in vivo at 0.6 mg/kg: Rattus norvegicus, po, 48 h, read-out: IL-1β percentage decrease %.
Data set [3] concerns IL-6. Put plainly: Inflammatory factor experiment B: IL-6 in knee synovial tissue (ELISA). It is filed as in vivo, SD rats. As to conditions: Rattus norvegicus, po, 48 h, read-out: IL-6 percentage decrease %.
Data set [4] has as its system gouty arthritis rats (sodium urate, right ankle and knee joint cavities). Put plainly: Pharmacodynamics experiment B on gouty arthritis rats: gait score. It is filed as in vivo, SD rats. As to conditions: for Gait Score: dose 0.6 mg/kg gavage, mean. The protocol: (§1) Compounds 12, 16, 19, 30, 34, 36, 38, 40, 44, 48, 49, 52, 58, 69, 83, 98, 102, 119, 121, and 122 were prepared by grinding with 0.5% CMC-Na prior to administration and formulated into suspensions of appropriate concentration (0.12 mg/mL) for gavage, with an administered dose of 0.5 mL/100 g.
(§2) 240 SD rats, males, were acclimatized for one week and weighed 180-220 g. […] The dose of each compound group was 0.6 mg/kg. The compounds in each group were prepared into the corresponding concentration suspension, and the volume of administration was 10 mL/kg.
(§3) 250 mg of sodium urate were added to 9 mL of saline, and 1 mL of Tween-80 solution was added, the resulting mixture was heated and stirred to formulate 10 mL of sodium urate solution. The rats were grasped and fixed, and 0.2 mL of sodium urate solution was injected into the right ankle and knee joint cavities respectively to establish gouty arthritis rat model.
(§4) Before modeling, positive drug and tested compounds were pre-administered for 7 days, once a day, and modeling was performed on day 8, and drug administration by gavage continued for 3 days after modeling.
Gait was scored according to the modified gait grading criteria introduced by Coderre et al. The gait of each rat was observed before and 2 h, 4 h, 8 h, 10 h, 24 h and 48 h after modeling and graded scoring was performed. The gait grading criteria were as follows: 0 point, normal walking; 1 point, slight lameness, the lower limbs were slightly bent; 2 points: moderate lameness, the lower limbs just touched the ground; 3 points, severe lameness, the lower limbs left the ground, and walked on three feet. The mean score of each group was calculated and compared with that of the model group.
(§5) Each experimental data was expressed as the mean, and intergroup comparisons were examined for significance using the ANOVA-Dunnett T-test, with P<0.05 as the significance indicator.

Data set [5] has the same test system. The data set can be described thus: Pharmacodynamics experiment B on gouty arthritis rats: ankle swelling rate. The class given is in vivo, SD rats. As to conditions: for change in vivo at 0.6 mg/kg: Rattus norvegicus, po, read-out: Swelling rate (ankle); for Swelling rate (ankle): dose 0.6 mg/kg gavage. The protocol:
as §1, §2, §3, §4
Before modeling and 2 h, 4 h, 8 h, 10 h, 24 h and 48 h after modeling, the circumference of the right ankle joint was measured using a soft ruler or the volume change at the ankle was measured (volumetric method), and the swelling degree and swelling rate of ankle joint were calculated:
Swelling degree (mm)=measured circumference (mm)−baseline circumference (mm)
Swelling rate (%)=swelling degree (mm)/baseline circumference (mm)×100%
as §5

Data set [6] can be described thus: In vivo pharmacokinetics in SD rats. On the procedure: Compound stock solution preparation: an appropriate amount of solid powder of the compounds were weighed separately, a certain amount of DMSO was added and 20 mg/mL of stock solution was obtained under vortex ultrasound.
Preparation of test compound for gavage: an appropriate amount of compound stock solution was taken by pipette, a certain amount of Solutol HS15 solution was added, the mixture was vortexed for 1 minute, then a certain amount of saline was added, and 1 mg/mL of solution was obtained after mixing well.
Preparation of test compounds for intravenous injection: an appropriate amount of compound stock solution was taken by pipette separately, a certain amount of Solutol HS15 solution was added, the mixture was vortexed for 1 minute, then a certain amount of physiological saline was added and a solution of 0.5 mg/mL was obtained after mixing well.
The animals were fasted overnight before administration by gavage, and food was given 4 hours after administration, during which they were free to drink. Two groups were set for each test compound, intravenous injection group and oral administration group, and the dose and mode of administration were shown in Table 12 below.
The blood samples were centrifuged at 4° C. for 5 min at 2,000 g to separate the plasma. The plasma samples were analyzed by LC/MS/MS to detect the concentration of each test compound in the plasma samples.
The parameters related to the […] were obtained by calculations with WinNonlin® Professional software.

Where [7] appears, read: synovial tissue of knee joints, 48 h after modeling, dose 0.6 mg/kg.
Where [8] appears, read: Intravenous injection - 1 mg/kg.

The structures appear in SMILES notation. Where two headings read alike, the source gives them in different places. Marks after values point to notes of the source that are not given here.

Regarding `COC(=O)c1ccc2c(cc1=O)[C@@H](N1CCCCC1=O)CCc1cc(OC)c(OC)c(OC)c1-2` [Compound 108, methyl (S)-1,2,3-trimethoxy-9-oxo-7-(2-oxopiperidin-1-yl)-5,6,7,9-tetrahydrobenzo[a]heptalen-10-carboxylate], the values for the inhibition in vivo at 0.6 mg/kg in data set [1], in data set [2] and in data set [3] were 104%, 92.7% and 207%, respectively.

On to `COc1cc2c(c(OC)c1OC)-c1ccc(-n3nccn3)c(=O)cc1[C@@H](NC(C)=O)CC2` [Compound 100, (S)—N-(1,2,3-trimethoxy-9-oxo-10-(2H-1,2,3-triazol-2-yl)-5,6,7,9-tetrahydrobenzo[a]heptalen-7-yl)acetamide], for which the figures for the inhibition in vivo at 0.6 mg/kg in data set [1], in data set [2] and in data set [3] were 120%, 65.2% and 169%, respectively.

As to `COc1cc2c(c(OC)c1OC)-c1ccc(-n3cnnn3)c(=O)cc1[C@@H](NC(C)=O)CC2` [Compound 95, (S)—N-{1,2,3-trimethoxy-9-oxo-10-(1H-tetrazol-1-yl)-5,6,7,9-tetrahydrobenzo[a]heptalen-7-yl}acetamide], the inhibition in vivo at 0.6 mg/kg was found to be 70% in data set [1], 40.4% in data set [2] and 109% in data set [3].

Regarding `CCNS(=O)(=O)N[C@H]1CCc2cc(OC)c(OC)c(OC)c2-c2ccc(C(=O)OC)c(=O)cc21` [Compound 112], the inhibition in vivo at 0.6 mg/kg came out at 97.8% in data set [1], 92% in data set [2] and 165% in data set [3].

In the case of `CNC(=O)c1cc2c(ccc1=O)-c1c(cc(OC)c(OC)c1OC)CC[C@@H]2NC(C)=O` [Compound 49, (S)-7-acetamido-1,2,3-trimethoxy-N-methyl-10-oxo-5,6,7,10-tetrahydrobenzo[a]heptalen-9-carboxamide], the “Gait Score” value in data set [4] (2 h) is 0; in data set [4] (4 h), 0; in data set [4] (8 h), 0*; in data set [4] (10 h), 0*; in data set [4] (24 h), 0.2; in data set [4] (48 h) it was 0. Moreover, the “Gait versus model group, in words” value in data set [4] (compounds 0.6 mg/kg, colchicine 0.6 and 1.2 mg/kg) is “significant improvement in gait occurred at different time points”. Moreover, the change in vivo at 0.6 mg/kg in data set [5] (2 h) was -1.02%; in data set [5] (4 h) it was 7.38%; in data set [5] (8 h), 8.12%; in data set [5] (10 h), 16.5%; in data set [5] (24 h) it was 12.9%; in data set [5] (48 h), 1.43%. The inhibition in vivo at 0.6 mg/kg in data set [1] was 79.2%; in data set [2], 69.1%; in data set [3], 78.6%.

For the molecule `COc1cc2c(c(OC)c1OC)-c1ccc(-n3ccnn3)c(=O)cc1[C@@H](NC(C)=O)CC2` [Compound 99, (S)—N-(1,2,3-trimethoxy-9-oxo-10-(1H-1,2,3-triazol-1-yl)-5,6,7,9-tetrahydrobenzo[a]heptalen-7-yl)acetamide], the inhibition in vivo at 0.6 mg/kg in data set [1] was determined as 91.7%; in data set [2], 66.4%; in data set [3] it was 79.6%.

With `COc1cc2c(c(OC)c1OC)-c1ccc(C(=O)N3CCC[C@H]3C#N)c(=O)cc1[C@@H](NC(C)=O)CC2` [Compound 60, N—{(S)-10-[(S)-2-cyanopyrrolidin-1-carbonyl]-1,2,3-trimethoxy-9-oxo-5,6,7,9-tetrahydrobenzo[a]heptalen-7-yl}acetamide], the inhibition in vivo at 0.6 mg/kg worked out at 85.8% in data set [1], 76.1% in data set [2] and 59.5% in data set [3].

For `[2H]C([2H])([2H])Oc1c(OC)cc2c(c1OC)-c1ccc(C(=O)NC)c(=O)cc1[C@@H](NC(C)=O)CC2` [Compound 122, (S)-7-acetamido-1,3-dimethoxy-2-trideutero-methoxy-N-methyl-9-oxo-5,6,7,9-tetrahydrobenzo[a]heptalen-10-carboxamide], the “Gait Score” value in data set [4] (0 h) was found to be 0; in data set [4] (2 h), 0; in data set [4] (4 h), 0.2; in data set [4] (8 h), 0.1; in data set [4] (10 h), 0.2; in data set [4] (24 h), 0.1. The “Gait Score” value in data set [4] (48 h) came out at 0. The “Swelling rate (ankle)” value in data set [5] (2 h) was 7.9%**; in data set [5] (4 h) it was 12.1%**; in data set [5] (8 h), 15.8%**; in data set [5] (10 h), 15.3%**; in data set [5] (24 h), 12.5%**; in data set [5] (48 h), 4.7%**. Also, the “TNF-α percentage decrease %” value in data set [1] (setting [7]) was 98.89%. For the same molecule, the “IL-1β percentage decrease %” value in data set [2] (setting [7]) was found to be 86.87%. For the same molecule, the figures for the AUCINF in data set [6] (Gavage - 10 mg/kg) and in data set [6] (setting [8]) were 3129 ng·h/mL and 624 ng·h/mL, respectively. Moreover, in data set [6] (Gavage - 10 mg/kg), the Cmax (commonly the maximum level reached in the sampled fluid or tissue) turned out to be 1153 ng/mL. Further, the MRTINF in data set [6] (Gavage - 10 mg/kg) is listed as 2.47 h; in data set [6] (setting [8]), 1.34 h. In addition, the Tmax (in general, the time from dosing to the highest level) in data set [6] (Gavage - 10 mg/kg) amounted to 0.250 h. Moreover, the t1/2 is recorded as 1.79 h in data set [6] (Gavage - 10 mg/kg) and 1.57 h in data set [6] (setting [8]). In data set [6] (Gavage - 10 mg/kg, calculated by AUCINF), the F is on record as 50.1%. Further, the CL in data set [6] (setting [8]) came to 27.2 mL/min/kg. In addition, the VSS in data set [6] (setting [8]) is 1.99 L/kg.

On to `COc1cc2c(c(OC)c1OC)-c1ccc(-n3ccnc3)c(=O)cc1[C@@H](NC(C)=O)CC2` [Compound 97, (S)—N-{10-(1H-imidazol-1-yl)-1,2,3-trimethoxy-9-oxo-5,6,7,9-tetrahydrobenzo[a]heptalen-7-yl}acetamide], for which the inhibition in vivo at 0.6 mg/kg turned out to be 92% in data set [1], 20.2% in data set [2] and 97.8% in data set [3].

For the molecule `COc1cc2c(c(OC)c1OC)-c1ccc(C(=O)N3CCCC3)c(=O)cc1[C@@H](NC(C)=O)CC2` [Compound 61, (S)—N-{1,2,3-trimethoxy-9-oxo-10-(pyrrolidin-1-carbonyl)-5,6,7,9-tetrahydrobenzo[a]heptalen-7-yl}acetamide], the inhibition in vivo at 0.6 mg/kg in data set [1] stood at 71.2%; in data set [2], 97.2%; in data set [3], 52.5%.

On to `CNC(=O)N[C@H]1CCc2cc(OC)c(OC)c(OC)c2-c2ccc(C(=O)NC)c(=O)cc21` [Compound 81, (S)-1,2,3-trimethoxy-N-methyl-7-(3-methylureido)-9-oxo-5,6,7,9-tetrahydrobenzo[a]heptalen-10-carboxamide], for which the inhibition in vivo at 0.6 mg/kg in data set [1] was 78%; in data set [2], 86.6%; in data set [3], 70.6%.

Source of the values: US20250129012A1, “ANTI-INFLAMMATORY AND ANALGESIC COMPOUNDS AND USE THEREOF” (JIANGSU ATOM BIOSCIENCE AND PHARMACEUTICAL CO., LTD., priority 2021, published 2025).
